{
  "source": "patent US7935525B2",
  "about": "“Inhibition of ATF2 activity to treat cancer” (Mount Sinai School of Medicine, priority 2001, dated 2011)",
  "key": {"SW1 tumors": {"test_system": "SW1 tumors", "assay": "Doxycycline-inducible peptide expression in existing SW1 tumors", "type": "in vivo, C3H mice", "from_the_text": "Constructs. ATF2 peptides were cloned into HA-penetratin pcDNA3 vector as described above. For the doxycycline inducible system peptide II was cloned in frame with HA and Penetratin into SacII and XbaI sites of the PUHD10-3 vector (Gossen M., et al., Proc. Natl. Acad. Sci. USA. 1992, 89(12):5547-51). The PeF1PrtTA vector (Gopalkrishnan R. V., et al., Nucleic Acids Res. 1999; 27(24):4775-82) places the rtTA gene under transcriptional control of the human EF-10 promoter. Replication deficient adenovirus expressing peptide II was generated by subcloning the ATF2 peptide cDNA into the corresponding adenovirus vector as previously described (Chen S. H., et al., Proc. Natl. Acad. Sci. USA 1994; 91(8):3054-7).\nDerivation of stable cell lines. Selection of clones stably expressing the rtTA construct was carried out in SW-1 cells in the presence of […] of G418. After the selection period 12 single colonies were picked, expanded and analyzed for activity by assaying for Luciferase activity (Gopalkrishnan R. V., et al., Nucleic Acids Res. 1999; 27(24):4775-82). […] The positive clone, which expresses the rtTA cDNA, was contransfected with PUHDI0-3 peptide II and Pbabe Puro vectors that allow one to establish inducible expression of the respective genes (Gopalkrishnan et al., supra) and single clones were selected with […] of Puromycin. Positive clones were selected by Western blotting.\nTumor growth and metastasis evaluation in vivo. Cell lines established in culture to constitutively or inducibly express the peptide were injected into mice subcutaneously (S.C.). LU1205, FEMX and SW-1 cells that expressed control or peptide II were trypsinized, resuspended in PBS and injected SC (1×10^6) into 6-7 week old mice in the lower flank. When the tumor reached the size of about 50 mm^3, 5 μM of SB203580 was injected into four areas of the LU1205 tumors every 4 days during a 2-week period. For FEMX tumors UCN-01 (2.5 mg/kg) was fed by gavage twice a day, three times per week for a total of 2 weeks. Tumor growth was monitored every two days. […]"}, "SW1 melanoma tumors [1]": {"test_system": "SW1 melanoma tumors", "assay": "Growth and metastasis of SW1 tumors constitutively expressing peptide, C3H mice", "type": "in vivo", "description": "(§1) Tumor growth and metastasis evaluation in vivo. Cell lines established in culture to constitutively or inducibly express the peptide were injected into mice subcutaneously (S.C.). LU1205, FEMX and SW-1 cells that expressed control or peptide II were trypsinized, resuspended in PBS and injected SC (1×10^6) into 6-7 week old mice in the lower flank. When the tumor reached the size of about 50 mm^3, 5 μM of SB203580 was injected into four areas of the LU1205 tumors every 4 days during a 2-week period. For FEMX tumors UCN-01 (2.5 mg/kg) was fed by gavage twice a day, three times per week for a total of 2 weeks. Tumor growth was monitored every two days. SW-1 cells expressing peptide II under tet-inducible vector were injected SC (1×10^6). When tumors reached a size of about 50 mm^3, the mice received doxycycline in their drinking water ([…]) for a total of 2-4 weeks. At the end of the experiment, the tumors were excised and weighed. The lungs and other organs were subjected to histopathological examination to detect metastatic lesions."}, "[2]": {"test_system": "TRE-based promoter (c-Jun/AP1)", "assay": "TRE-Luc reporter in c-Jun wild-type fibroblasts", "type": "cell-based", "description": "[Worded in the source for another cell line; this cell line is reported under the same test.] (§2) Transient transfection and transcriptional analysis. Mouse melanoma tumors grown in culture were transfected with control vector or peptide II expressing luciferase or β-galactosidase constructs (Bhoumik et al., Clin. Cancer Res. 2001; 7(2):331-42). Transient transfection of different reporter constructs (0.5 cg) with expression vectors and pCMV-Cgal (0.25 Cg) into 5×10^5 melanoma cells was performed using Lipofectamine™ (Life Technologies-BRL). Transfection of the Jun2-luciferase construct permitted us to monitor activity of ATF2 and c-Jun. Jun2-Luc and TRE-Luc constructs were previously described (van Dam H., et al., EMBO J. 1993; 12:479-487; and van Dam H., et al., EMBO J. 1995; 14:1798-1811). Luciferase activity was determined using the Luciferase assay system (Promega®, Madison, Wis.) and normalized on the basis of β-galactosidase (β-Gal) levels in transfected cells. Proteins were prepared for β-Gal and Luciferase analysis at the selected time points after transfection."}, "Fas protein": {"test_system": "Fas protein", "assay": "Western blot of overall Fas protein in melanoma cells", "type": "cell-based", "conditions": "peptide-expressing melanoma cells"}, "[3]": {"test_system": "ATF2/c-Jun transcriptional activity", "assay": "Jun2-Luciferase reporter in SW1 clones", "type": "cell-based, mouse", "description": "as §2"}, "[4]": {"test_system": "ATF2 target sequence (c-Jun promoter motif TGACACTA)", "assay": "Electrophoretic mobility shift assay with labeled AP1 oligonucleotide", "type": "binding, mouse", "conditions": "control vs peptide-expressing SW1 cells", "description": "Electrophoretic mobility shift assays were performed as described. (Ivanov and Ronada, J Biol Chem 1999; 274(20):14079-89). GST binding assays were performed with GST-peptide II as described (Adler et al., Proc Natl Acad Sci USA 1995; 92 10585-9). SW1 cells expressing control vector or peptide II were subjected to FACS analysis following their incubation with antibodies to the cell surface receptor of FAS as described above."}, "FEMX tumor cells": {"test_system": "FEMX tumor cells", "assay": "Growth of transplanted FEMX tumors in mice", "type": "in vivo", "description": "as §1"}, "SW1 melanoma tumors [5]": {"test_system": "SW1 melanoma tumors", "assay": "Growth of SW1 tumors in FasL-deficient GLD mice", "type": "in vivo", "conditions": "compared with C3H", "description": "as §1"}, "SW1 cells": {"test_system": "SW1 cells", "assay": "Thymidine incorporation (DNA synthesis)", "type": "cell-based, mouse", "conditions": "peptide-expressing vs control cells"}, "AP1 complex": {"test_system": "AP1 complex", "assay": "Transcriptional activity mediated from AP1 target sequences", "type": "cell-based", "conditions": "peptide-expressing melanoma cells"}, "p38": {"biological_target": "p38 (Homo sapiens, UniProt Q16539)", "sequence (Q16539 whole entry)": "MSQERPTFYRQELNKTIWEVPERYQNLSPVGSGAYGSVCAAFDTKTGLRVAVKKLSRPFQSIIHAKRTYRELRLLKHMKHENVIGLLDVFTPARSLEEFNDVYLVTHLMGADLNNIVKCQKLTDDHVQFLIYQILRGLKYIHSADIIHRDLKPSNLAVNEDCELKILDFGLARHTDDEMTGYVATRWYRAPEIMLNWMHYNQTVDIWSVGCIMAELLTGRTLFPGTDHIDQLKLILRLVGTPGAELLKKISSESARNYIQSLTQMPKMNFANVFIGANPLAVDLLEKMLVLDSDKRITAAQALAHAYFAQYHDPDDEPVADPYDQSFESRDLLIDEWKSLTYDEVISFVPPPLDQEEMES", "assay": "In vitro phosphorylation of the peptide", "type": "biochemical"}},
  "note": "No end group written: not given here.",
  "data": [
    {"substance": "peptide II: N-terminal polypeptide fragment of ATF2, amino acid residues 50-100, expressed from pcDNA3 with HA-penetratin tag (EMTLKFGPARNDSVIVADQTPTPTRFLKNCEEVGLFNELASPFENEFKKAS; also: HA-penetratin tag, position not given here; UniProt P15336 50-100, looked up, fragment)", "values": [
      {"measurement": "decrease in the growth rate of tumors", "setting": "SW1 tumors; doxycycline in drinking water from 90 mm^3, 32 days", "result": "~2", "unit": "fold"},
      {"measurement": "reduction of tumor growth rate", "setting": "SW1 tumors; inducible expression via doxycycline", "result": 50, "unit": "%"},
      {"measurement": "degree of apoptosis in tumors (tunnel assay)", "setting": "SW1 tumors; tumors from doxycycline-fed mice", "result": "increase in degree of apoptosis"},
      {"measurement": "tumor size", "setting": "SW1 melanoma tumors [1]; 3-week period, control parent tumor 1800 mm^3", "result": 100, "unit": "mm^3"},
      {"measurement": "tumor size", "setting": "SW1 melanoma tumors [1]; SC injection, analyzed three weeks later", "result": "very small tumors"},
      {"measurement": "average tumor size", "setting": "SW1 melanoma tumors [1]; at 72 days", "result": "about 1200 mm^3"},
      {"measurement": "time for which tumor growth was completely blocked", "setting": "SW1 melanoma tumors [1]; constitutive expression", "result": "up to 35 days"},
      {"measurement": "apoptosis in tumors (tunnel assay)", "setting": "SW1 melanoma tumors [1]; excised SW1 tumors", "result": "substantially higher level of apoptosis"},
      {"measurement": "metastasis", "setting": "SW1 melanoma tumors [1]; monitored up to 72 days", "result": "no metastasis was seen"},
      {"measurement": "increase in the activities of TRE-Luc", "setting": "[2]", "result": 200, "unit": "fold"},
      {"measurement": "overall level of Fas protein", "setting": "Fas protein", "result": "increase in the overall level of Fas protein"},
      {"measurement": "decrease in basal levels of ATF2 transcriptional activities", "setting": "[3]; SW1 clones constitutively expressing peptide", "result": 5, "unit": "fold"},
      {"measurement": "ATF2 transcriptional activities in response to UV-treatment", "setting": "[3]; SW1 clones, UV", "result": "decrease"},
      {"measurement": "binding of nuclear extracts to the labeled AP1 oligonucleotide", "setting": "[4]", "result": "No significant changes"},
      {"measurement": "tumor growth", "setting": "FEMX tumor cells; co-treatment: peptide-expressing FEMX + UCN-01", "result": "tumor regression"},
      {"measurement": "tumor cell growth", "setting": "FEMX tumor cells; single agent: UCN-01 by gavage, or peptide expressed in tumor cells", "result": "grew much more slowly"},
      {"measurement": "blocking growth of SW1 tumors", "setting": "SW1 melanoma tumors [5]", "result": "as efficient in blocking growth"},
      {"measurement": "reduction in DNA synthesis level", "setting": "SW1 cells", "result": 50, "unit": "%"},
      {"measurement": "transcriptional activities mediated by AP1 target sequences", "setting": "AP1 complex", "result": "lower"},
      {"measurement": "phosphorylation of the peptide by p38", "setting": "p38", "result": "Neither JNK nor p38 was found capable of phosphorylating"}
    ]}
  ]
}
